Test system: diabetes model rats created by administration of streptozotocin
Experiment: Blood glucose level measurement test after insulin administration
Type: in vivo, rat
Details: 0.5, 1 and 2 hours, fasted diabetes model rats, FIG. 2
Protocol: Insulin was transdermally administered to rats using the manufactured microneedle array.
In diabetes model rats created by administration of streptozotocin (Body weight: about 300 g), their abdomens were dehaired. After these rats were fasted for 14 hours or longer, the microneedle array was inserted to the dehaired skin and fixed to the skin by YU-KI BAN (NITTO MEDICAL CORPORATION). Blood was sampled 0.5, 1 and 2 hours after administration of the microneedle array, and the blood glucose levels were measured. For measurement of the blood glucose levels, Glucose CII-test kit (Wako Pure Chemical Industries, Ltd.) was used. The tests were conducted in four cases.
Insulin was subcutaneously injected to rats.
After the diabetes model rats were fasted for 14 hours or longer, 0.25 units of insulin were subcutaneously injected. Blood was sampled 0.5, 1 and 2 hours after administration of insulin, and the blood glucose levels were measured. For measurement of the blood glucose levels, Glucose CII-test kit was used like Example 1. […]. The tests were conducted in four cases.
As a standard of the blood glucose level measurement test, a control (no insulin) was measured.
After the diabetes model rats were fasted for 14 hours or longer, blood was sampled 0.5, 1 and 2 hours later, and the blood glucose levels were measured. […]

Substance: insulin: Bovine insulin (NACALAI TESQUE), given on hyaluronic acid microneedle array tips (0.25 unit per array) or by subcutaneous injection
- blood glucose level (relative value, time zero = 100) (microneedle array, 0.25 unit insulin, transdermal on dehaired abdomen): lowered
- blood glucose level (relative value, time zero = 100) (subcutaneous injection, 0.25 units of insulin): lowered
